Laboratory results as given in patent publication US20140018316A1, “OPHTHALMIC PHARMACEUTICAL COMPOSITION” (Hayashibara Co., Ltd., priority 2005, published 2014).

Columns and labels:
pig lens = assay: Swelling and cloudiness of extracted pig lenses soaked in test or control solutions (traumatic cataract model); set-up: key to degree of cloudiness in the lens (relative value): relative gray-scale density; uninjured lens in saline at start = 10; details: for degree of cloudiness in the lens (relative value) / swelling of the lens: 100 mM in physiological saline
Description: Using an injured pig lens employed as a model for traumatic cataract, the influence of cyclic tetrasaccharide on the cloudiness in the lens was experimented as follows: A test solution was previously prepared by dissolving a cyclic tetrasaccharide crystal, penta hydrate, which had been prepared by the method in the later described Reference for Example 2, in physiological saline into a physiological saline containing 100 mM cyclic tetrasaccharide. As a positive control, a physiological saline containing 100 mM α,α-trehalose, a reagent grade specimen, commercialized by Hayashibara Biochemical Laboratories, Inc., Okayama, Japan, was used; andasanegativecontrol, physiological saline was used. Two milliliter aliquots of any one of the above three kinds of aqueous solutions were added to every two wells in respective commercialized 24-well culture plates. In one of the two wells containing the same kind of solution in each plate was placed a pig lens, which had been obtained from a slaughter-house, extracted by incision within three hours after the obtention and without injuring, and washing the extracted lens with physiological saline; while in the other of the two wells was placed a pig lens, which had been prepared by the same procedure as in the above but injured with a 27-gauge injection needle (commercialized by Terumo Co., Tokyo, Japan) to form an injured line, about one millimeter in length. These lens were allowed to stand at ambient temperature and macroscopically and microscopically observed their change in the degree of cloudiness and in the shape of swelling, etc. This experiment was run in a triplicate manner, and the macroscopic and microscopic observations were done just after (0), 1 hour, 2 hours, 6 hours, and 24 hours after the lenses were placed in the wells, and then observed daily over 28 days. A similar experiment was further conducted using a physiological saline containing 75 mM, 50 mM, 20 mM, 10 mM, or 1 mM cyclic tetrasaccharide and a lens that had not been injured with the injection needle. The degree of cloudiness in each lens, observed with “STEREOMICROSCOPE SZX12”, a product name of a stereomicroscope commercialized by Olympus Co., Tokyo, Japan, was expressed by photographing a transmitted light image of each lens with “PENGUIN 150CL”, a digital camera commercialized by Pixela Co., Tokyo, Japan, capturing the transmitted image by a computer using a view finder commercialized by Olympus Co., Tokyo, Japan, and expressing numerically the degree of light and shade of the captured image as a gray-scale using “Scion Image for Windows Beta 4.0.2”, a software commercialized by Scion Co., Maryland, U.S.A., to obtain a mean density for each lens. The time course change in the degree of cloudiness in each lens placed in each solution was expressed with a relative value, regarding the degree of cloudiness, just after the lens free of injury had been placed in physiological saline, as 10. The change of cloudiness and swelling are respectively in Tables 1 and 2. In Table 1, there show only the results from time 0 hour through two days and from days 7, 14 and 28.

[1] = tested on: circular corneal fragment extracted from a pig eye ball; assay: Corneal walleye/cloudiness and edema of pig corneal fragments soaked in test or control solutions; set-up: degree of corneal walleye/cloudiness (relative value): scale not given here; key to corneal edema: ◯: Corneal edema was observed.; —: No corneal edema was observed; details: for corneal edema / degree of corneal walleye/cloudiness (relative value): 100 mM in physiological saline
Description: Experiment to examine the influence of cyclic tetrasaccharide on corneal walleye/cloudiness was conducted as follows: A physiological saline containing 100 mM cyclic tetrasaccharide was previously prepared for use as a test solution by dissolving a cyclic tetrasaccharide crystal, pentahydrate, which had been prepared by the later described method in Example for Reference 2. As a positive control solution, it was prepared a physiological saline containing 100 mM α,α-trehalose, a reagent grade specimen, commercialized by Hayashibara Biochemical Laboratories, Inc., Okayama, Japan; and as a negative control solution, physiological saline was used. Two milliliters of any one of the above three kinds of aqueous solutions were added to respective two wells in a commercialized 24-well culture plate. To each well in each culture plate a circular corneal fragment, which had been extracted from a pig eye ball obtained from a slaughterhouse by using a trephine for corneal transplantation, was placed and macroscopically and microscopically observed for changing in both the degree of corneal walleye/cloudiness and the change of corneal shape such as corneal edema. The macroscopic and microscopic observations were done just after the corneas were placed in the wells at (0) and at 1, 2, 6, 24, 48 and 72 hours after their placing. The methods of macroscopic and microscopic observations and the analysis of the time course change of corneal walleye/cloudiness were conducted by the same ones as used in Experiment 1. Tables 3 and 4 show the transition of corneal walleye/cloudiness and that of the corneal edema, respectively.

SMILES: OC[C@H]1O[C@H](O[C@H]2O[C@H](CO)[C@@H](O)[C@H](O)[C@H]2O)[C@H](O)[C@@H](O)[C@@H]1O [Positive control solution, α,α-trehalose, reference compound]
- degree of cloudiness in the lens (relative value) (pig lens; injured lens, 1 hour): 10
- degree of cloudiness in the lens (relative value) (pig lens; injured lens, 2 hours): 10
- degree of cloudiness in the lens (relative value) (pig lens; injured lens, 6 hours): 15
- degree of cloudiness in the lens (relative value) (pig lens; injured lens, 24 hours): 46
- degree of cloudiness in the lens (relative value) (pig lens; injured lens, 2 days): 89
- swelling of the lens (pig lens; injured lens, 2 days): ◯ (swelling was observed)
- degree of cloudiness in the lens (relative value) (pig lens; injured lens, time 0): 10
- degree of cloudiness in the lens (relative value) (pig lens; no injury, 1 hour): 13
- degree of cloudiness in the lens (relative value) (pig lens; no injury, 2 hours): 13
- degree of cloudiness in the lens (relative value) (pig lens; no injury, 6 hours): 12
- degree of cloudiness in the lens (relative value) (pig lens; no injury, 24 hours): 14
- degree of cloudiness in the lens (relative value) (pig lens; no injury, 2 days): 19
- degree of cloudiness in the lens (relative value) (pig lens; no injury, 7 days): 36
- degree of cloudiness in the lens (relative value) (pig lens; no injury, 14 days): 39
- degree of cloudiness in the lens (relative value) (pig lens; no injury, 28 days): 75
- swelling of the lens (pig lens; no injury, 28 days): ◯ (swelling was observed)
- degree of cloudiness in the lens (relative value) (pig lens; no injury, time 0): 10
- swelling of the lens (in words) (pig lens; 100 mM, injured lens, 2 days after initiating observation): observed to have swelling from 2 days
- cloudiness in the lens compared with the negative control solution (pig lens; 100 mM, lenses with no injury): inhibited
- swelling of the lens (in words) (pig lens; 100 mM, lenses with no injury, on 28 days): swelling of the lenses was macroscopically observed
- corneal edema ([1]; 1 hour): —
- degree of corneal walleye/cloudiness (relative value) ([1]; 1 hour): 11
- corneal edema ([1]; 2 hours): —
- degree of corneal walleye/cloudiness (relative value) ([1]; 2 hours): 11
- corneal edema ([1]; 6 hours): —
- degree of corneal walleye/cloudiness (relative value) ([1]; 6 hours): 13
- corneal edema ([1]; 24 hours): ◯
- degree of corneal walleye/cloudiness (relative value) ([1]; 24 hours): 30
- corneal edema ([1]; 48 hours): ◯
- degree of corneal walleye/cloudiness (relative value) ([1]; 48 hours): 60
- corneal edema ([1]; 72 hours): ◯
- degree of corneal walleye/cloudiness (relative value) ([1]; 72 hours): 70
- corneal edema ([1]; time 0): —
- degree of corneal walleye/cloudiness (relative value) ([1]; time 0): 10
- corneal edema (in words) ([1]; 100 mM, at 24 hours): macroscopic corneal edema
